A word on the DC50: it is the midpoint of the concentration-degradation curve. The low end stands for a more potent degrader, the high end for a less potent degrader.

Each structure is given as a SMILES string. Where a name gives a salt, the structure may show the parent alone.

Experimental findings from US20240374591A1, “CEREBLON BINDING COMPOUNDS, COMPOSITIONS THEREOF, AND METHODS OF TREATMENT THEREWITH” (CELGENE CORPORATION, priority 2021, published 2024) are described below.

In the assay the target is T1, AR in VCaP cells (Homo sapiens, UniProt P10275).
T1 construct: endogenous in cells; host or cells: VCaP cells
T1 sequence (P10275 1-920): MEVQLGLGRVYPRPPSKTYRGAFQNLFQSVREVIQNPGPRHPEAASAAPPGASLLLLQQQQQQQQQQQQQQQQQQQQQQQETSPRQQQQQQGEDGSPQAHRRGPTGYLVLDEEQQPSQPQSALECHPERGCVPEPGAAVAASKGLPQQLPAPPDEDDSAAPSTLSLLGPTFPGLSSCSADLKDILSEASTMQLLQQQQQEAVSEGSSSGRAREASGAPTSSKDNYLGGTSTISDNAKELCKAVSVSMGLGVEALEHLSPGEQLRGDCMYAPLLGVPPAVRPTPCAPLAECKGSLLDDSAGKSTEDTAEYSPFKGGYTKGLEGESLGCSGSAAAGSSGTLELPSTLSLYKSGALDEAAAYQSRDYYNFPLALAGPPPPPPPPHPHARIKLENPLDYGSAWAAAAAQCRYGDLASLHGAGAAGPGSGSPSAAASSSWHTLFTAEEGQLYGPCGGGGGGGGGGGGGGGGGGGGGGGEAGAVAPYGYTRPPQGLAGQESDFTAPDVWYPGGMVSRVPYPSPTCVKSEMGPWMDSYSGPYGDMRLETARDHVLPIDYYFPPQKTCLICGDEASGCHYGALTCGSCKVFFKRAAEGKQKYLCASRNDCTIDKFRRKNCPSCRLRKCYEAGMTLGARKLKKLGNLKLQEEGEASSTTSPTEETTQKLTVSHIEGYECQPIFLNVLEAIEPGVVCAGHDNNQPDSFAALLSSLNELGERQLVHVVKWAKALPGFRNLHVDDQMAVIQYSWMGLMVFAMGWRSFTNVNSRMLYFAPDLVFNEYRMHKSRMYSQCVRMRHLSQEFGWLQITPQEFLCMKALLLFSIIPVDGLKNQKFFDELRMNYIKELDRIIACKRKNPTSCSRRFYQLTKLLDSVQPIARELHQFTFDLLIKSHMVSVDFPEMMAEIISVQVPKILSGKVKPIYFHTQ
Kind of assay: VCAP AR Degradation Assay (AR ELISA, 24 h). In kind it is cell-based. The following applies: for DC50: concentration giving 50% AR degradation vs DMSO control; for remaining activity at up to 5 µM: lowest measured AR level normalized to DMSO control, top concentration 5 μM, read-out: Y. As to the method: VCAP AR Degradation Assay. Test compounds were pre-dispensed into a Corning CellBind 96-well clear bottom plate (Cat #3300) using an acoustic dispenser to make a 10-point concentration series at 1:3 dilution for each compound. The final top concentration of each compound was 5 μM. DMSO at a final concentration of 0.1% was used as a control. VCaP cells cultured in DMEM with 8% fetal bovine serum (FBS) were seeded at 50K cells per well in a 200 μL volume into the compound plate and incubated at 37° C. in a CO2 incubator for 24 h. The medium was carefully removed from the cells and the plate was placed on ice. One hundred μL of ice-cold 1× cell lysis buffer from Cell Signaling Technologies (Cat #9803) was added to each well of the cells and the plate was incubated at 4° C. on a shaker for 1 h. Fifteen μL of cell lysate was used for AR ELISA detection using a PathScan Total Sandwich AR ELISA kit (Cell Signaling Technology, Cat #12580). AR levels in compound-treated wells were normalized to that of DMSO control and expressed as percent of control (PoC) (y). A Four Parameter Logistic Model (Sigmoidal Dose-Response Model) was used to determine the compound's DC50, and EC50, using the following equation: […]
The lowest measured AR level normalized to DMSO control in response to compound treatment, termed Y value, was used to characterize the compound-mediated AR degradation efficiency.
(An ELISA detects its analyte on a solid surface through an enzyme-linked reagent.)

Turning to `CC1(C)C(=O)N(c2ccc(C#N)c(C(F)(F)F)c2)C(=S)N1[C@H]1CC[C@H](OCCC2CCN(CC(=O)Nc3ccc(C4CCC(=O)NC4=O)nc3)CC2(F)F)CC1` (stereo partly drawn) [Cmpd 31, 2-(4-(2-(((trans)-4-(3-(4-Cyano-3-(trifluoromethyl)phenyl)-5,5-dimethyl-4-oxo-2-thioxoimidazolidin-1-yl)cyclohexyl)oxy)ethyl)-3,3-difluoropiperidin-1-yl)-N-(6-(2,6-dioxopiperidin-3-yl)pyridin-3-yl)acetamide], the DC50 is ≤ 5 nM and the remaining activity at up to 5 µM fell in the range of 0 to 20%.

As for `C[C@@H]1CN(CCO[C@H]2CC[C@H](N3C(=S)N(c4ccc(C#N)c(C(F)(F)F)c4)C(=O)C3(C)C)CC2)C[C@H](C)N1CC(=O)Nc1ccc(C2CCC(=O)NC2=O)nc1` (stereo partly drawn) [Cmpd 2, 2-((2R,6S)-4-(2-((trans-4-(3-(4-Cyano-3-(trifluoromethyl)phenyl)-5,5-dimethyl-4-oxo-2-thioxoimidazolidin-1-yl)cyclohexyl)oxy)ethyl)-2,6-dimethylpiperazin-1-yl)-N-(6-(2,6-dioxopiperidin-3-yl)pyridin-3-yl)acetamide hydrochloride], the DC50 was in the range of 5 to 10 nM and the remaining activity at up to 5 µM is 30 to 70%.

Consider `C[C@@H]1CN(CCC[C@H]2CC[C@H](N3C(=S)N(c4ccc(C#N)c(C(F)(F)F)c4)C(=O)C3(C)C)CC2)C[C@H](C)N1CC(=O)Nc1ccc(C2CCC(=O)NC2=O)nc1` (stereo partly drawn) [Cmpd 3, 2-((2R,6S)-4-(3-(trans-4-(3-(4-Cyano-3-(trifluoromethyl)phenyl)-5,5-dimethyl-4-oxo-2-thioxoimidazolidin-1-yl)cyclohexyl)propyl)-2,6-dimethylpiperazin-1-yl)-N-(6-(2,6-dioxopiperidin-3-yl)pyridin-3-yl)acetamide], for which the DC50 is 5 to 10 nM and the remaining activity at up to 5 µM was in the range of 30 to 70%.

Take `C[C@@H]1CN(CCCO[C@H]2CC[C@H](N3C(=S)N(c4ccc(C#N)c(Cl)c4)C(=O)C3(C)C)CC2)C[C@H](C)N1CC(=O)Nc1ccc(C2CCC(=O)NC2=O)nc1` (stereo partly drawn) [Cmpd 7, 2-((2R,6S)-4-(3-((trans-4-(3-(3-Chloro-4-cyanophenyl)-5,5-dimethyl-4-oxo-2-thioxoimidazolidin-1-yl)cyclohexyl)oxy)propyl)-2,6-dimethylpiperazin-1-yl)-N-(6-(2,6-dioxopiperidin-3-yl)pyridin-3-yl)acetamide hydrochloride]: the DC50 is ≤ 5 nM and the remaining activity at up to 5 µM lay in the range of 0 to 20%.

With `C[C@@H]1C[C@H](OCCC[C@H]2CC[C@H](N3C(=S)N(c4cnc(C#N)c(C(F)(F)F)c4)C(=O)C3(C)C)CC2)C[C@H](C)N1CC(=O)Nc1ccc(C2CCC(=O)NC2=O)nc1` (stereo partly drawn) [Cmpd 26, 2-((2R,4r,6S)-4-(3-((trans)-4-(3-(6-Cyano-5-(trifluoromethyl)pyridin-3-yl)-5,5-dimethyl-4-oxo-2-thioxoimidazolidin-1-yl)cyclohexyl)propoxy)-2,6-dimethylpiperidin-1-yl)-N-(6-(2,6-dioxopiperidin-3-yl)pyridin-3-yl)acetamide], the half-maximal degradation concentration (DC50) is ≤ 5 nM and the remaining activity at up to 5 µM is 0 to 20%.

Regarding `C[C@@H]1CN(CCCC[C@H]2CC[C@H](N3C(=S)N(c4ccc(C#N)c(C(F)(F)F)c4)C(=O)C3(C)C)CC2)C[C@H](C)N1CC(=O)Nc1ccc(N2CCC(=O)NC2=O)nc1` [Cmpd 15, 2-((2R,6S)-4-(4-((trans)-4-(3-(4-Cyano-3-(trifluoromethyl)phenyl)-5,5-dimethyl-4-oxo-2-thioxoimidazolidin-1-yl)cyclohexyl)butyl)-2,6-dimethylpiperazin-1-yl)-N-(6-(2,4-dioxotetrahydropyrimidin-1(2H)-yl)pyridin-3-yl)acetamide], the DC50 is 100 to 10000 nM and the remaining activity at up to 5 µM was in the range of 30 to 70%.

With `C[C@@H]1CN(CCC[C@H]2CC[C@H](N3C(=S)N(c4cnc(C#N)c(Cl)c4)C(=O)C3(C)C)CC2)C[C@H](C)N1CC(=O)Nc1ccc(C2CCC(=O)NC2=O)nc1` (stereo partly drawn) [Cmpd 11, 2-((2S,6R)-4-(3-(trans-4-(3-(5-Chloro-6-cyanopyridin-3-yl)-5,5-dimethyl-4-oxo-2-thioxoimidazolidin-1-yl)cyclohexyl)propyl)-2,6-dimethylpiperazin-1-yl)-N-(6-(2,6-dioxopiperidin-3-yl)pyridin-3-yl)acetamide hydrochloride], the DC50 is ≤ 5 nM and the remaining activity at up to 5 µM was 20 to 30%.

For `C[C@@H]1C[C@H](OCCO[C@H]2CC[C@H](N3C(=S)N(c4cnc(C#N)c(C(F)(F)F)c4)C(=O)C3(C)C)CC2)C[C@H](C)N1CC(=O)Nc1ccc(C2CCC(=O)NC2=O)nc1` (stereo partly drawn) [Cmpd 30, 2-((2R,4r,6S)-4-(2-(((trans)-4-(3-(6-Cyano-5-(trifluoromethyl)pyridin-3-yl)-5,5-dimethyl-4-oxo-2-thioxoimidazolidin-1-yl)cyclohexyl)oxy)ethoxy)-2,6-dimethylpiperidin-1-yl)-N-(6-(2,6-dioxopiperidin-3-yl)pyridin-3-yl)acetamide], the DC50 is ≤ 5 nM and the remaining activity at up to 5 µM fell in the range of 0 to 20%.

On to `C[C@@H]1CN(CCO[C@H]2CC[C@H](N3C(=S)N(c4ccc(C#N)c(C(F)(F)F)c4)C(=O)C3(C)C)CC2)C[C@H](C)N1CC(=O)Nc1ccc(N2CCC(=O)NC2=O)nc1` [Cmpd 1, 2-((2R,6S)-4-(2-((trans-4-(3-(4-Cyano-3-(trifluoromethyl)phenyl)-5,5-dimethyl-4-oxo-2-thioxoimidazolidin-1-yl)cyclohexyl)oxy)ethyl)-2,6-dimethylpiperazin-1-yl)-N-(6-(2,4-dioxotetrahydropyrimidin-1(2H)-yl)pyridin-3-yl)acetamide], for which the DC50 fell in the range of 100 to 10000 nM and the remaining activity at up to 5 µM fell in the range of 30 to 70%.

With `C[C@@H]1CN(CCC[C@H]2CC[C@H](N3C(=S)N(c4ccc(C#N)c(Cl)c4)C(=O)C3(C)C)CC2)C[C@H](C)N1CC(=O)Nc1ccc(C2CCC(=O)NC2=O)nc1` (stereo partly drawn) [Cmpd 10, 2-((2R,6S)-4-(3-(trans-4-(3-(3-Chloro-4-cyanophenyl)-5,5-dimethyl-4-oxo-2-thioxoimidazolidin-1-yl)cyclohexyl)propyl)-2,6-dimethylpiperazin-1-yl)-N-(6-(2,6-dioxopiperidin-3-yl)pyridin-3-yl)acetamide hydrochloride], the DC50 lay in the range of 10 to 100 nM and the remaining activity at up to 5 µM is 30 to 70%.

With `C[C@@H]1C[C@H](CCO[C@H]2CC[C@H](N3C(=S)N(c4ccc(C#N)c(C(F)(F)F)c4)C(=O)C3(C)C)CC2)C[C@H](C)N1CC(=O)Nc1ccc(C2CCC(=O)NC2=O)nc1` (stereo partly drawn) [Cmpd 17, 2-((2R,4r,6S)-4-(2-(((trans)-4-(3-(4-Cyano-3-(trifluoromethyl)phenyl)-5,5-dimethyl-4-oxo-2-thioxoimidazolidin-1-yl)cyclohexyl)oxy)ethyl)-2,6-dimethylpiperidin-1-yl)-N-(6-(2,6-dioxopiperidin-3-yl)pyridin-3-yl)acetamide], the DC50 was ≤ 5 nM and the remaining activity at up to 5 µM was 20 to 30%.

Turning to `C[C@@H]1CN(CCO[C@H]2CC[C@H](N3C(=S)N(c4cnc(C#N)c(Cl)c4)C(=O)C3(C)C)CC2)C[C@H](C)N1CC(=O)Nc1ccc(C2CCC(=O)NC2=O)nc1` (stereo partly drawn) [Cmpd 6, 2-((2R,6S)-4-(2-((trans-4-(3-(5-Chloro-6-cyanopyridin-3-yl)-5,5-dimethyl-4-oxo-2-thioxoimidazolidin-1-yl)cyclohexyl)oxy)ethyl)-2,6-dimethylpiperazin-1-yl)-N-(6-(2,6-dioxopiperidin-3-yl)pyridin-3-yl)acetamide hydrochloride], the DC50 was ≤ 5 nM and the remaining activity at up to 5 µM was in the range of 20 to 30%.
